Experimental data reported in ChEMBL document CHEMBL5247674, “Discovery of Selective and Potent KRASG12D Inhibitors as Potential Therapy in Cancer” (ACS Med Chem Lett, 2023).

Assays:
[1] = target: GTPase KRas (Homo sapiens, UniProt P01116, G12D); assay: Inhibition of human KRAS G12D mutant in human AGS cells assessed as reduction in phosphorylated ERK level incubated for 3 hrs; format: cell-based
[2] = species: Homo sapiens; assay: Selectivity ratio of IC50 for inhibition of KRAS G12D mutant (unknown origin) to CRAF (unknown origin) protein protein interaction to IC50 for KRAS (unknown origin) to CRAF (unknown origin) protein protein interaction; conditions: tested as the 2H-labelled form
[3] = Inhibition of KRAS G12D mutant (unknown origin) to CRAF (unknown origin) protein protein interaction; set-up: species or system Homo sapiens
[4] = target: GTPase KRas/RAF1 (Homo sapiens, UniProt P01116); assay: Inhibition of KRAS (unknown origin) to CRAF (unknown origin) protein protein interaction; format: protein assay
Chain of GTPase KRas/RAF1 (P04049 whole entry): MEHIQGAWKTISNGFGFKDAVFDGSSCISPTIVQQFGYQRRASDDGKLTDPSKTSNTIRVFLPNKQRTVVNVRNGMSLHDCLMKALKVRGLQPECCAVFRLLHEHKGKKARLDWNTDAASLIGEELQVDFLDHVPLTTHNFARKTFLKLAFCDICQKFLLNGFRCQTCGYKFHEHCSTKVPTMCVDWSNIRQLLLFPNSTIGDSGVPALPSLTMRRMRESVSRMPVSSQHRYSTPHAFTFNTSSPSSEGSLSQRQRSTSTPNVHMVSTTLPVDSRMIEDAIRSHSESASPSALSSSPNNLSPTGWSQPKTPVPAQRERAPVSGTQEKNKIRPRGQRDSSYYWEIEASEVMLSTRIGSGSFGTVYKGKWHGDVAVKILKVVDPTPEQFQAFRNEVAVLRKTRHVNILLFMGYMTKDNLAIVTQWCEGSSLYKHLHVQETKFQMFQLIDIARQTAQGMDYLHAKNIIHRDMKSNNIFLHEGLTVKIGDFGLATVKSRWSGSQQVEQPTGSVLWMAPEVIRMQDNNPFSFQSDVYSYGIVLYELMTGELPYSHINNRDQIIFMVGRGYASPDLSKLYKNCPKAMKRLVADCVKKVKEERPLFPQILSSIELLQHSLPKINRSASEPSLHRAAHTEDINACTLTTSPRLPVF
Chain of GTPase KRas/RAF1 (P01116 whole entry): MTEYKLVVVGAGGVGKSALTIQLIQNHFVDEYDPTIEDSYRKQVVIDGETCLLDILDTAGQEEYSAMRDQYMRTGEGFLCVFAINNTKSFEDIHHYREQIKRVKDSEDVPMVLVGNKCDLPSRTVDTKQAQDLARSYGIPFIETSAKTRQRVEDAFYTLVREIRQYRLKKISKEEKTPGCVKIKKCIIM

Chain of GTPase KRas (P01116 whole entry G12D): as the sequence (P01116 whole entry) above, with G12D counted along it

Compound	IC50 [1]	Ratio IC50 [2]	IC50 [3]	IC50 [4]
Oc1ccc(C(F)(F)F)c(-c2ncc3c(N4CC5CCC4CN5)nc(OCC45CCCN4CCC5)nc3c2F)c1 (centres undefined)	> 0.001 µM			
Oc1cc(Cl)c(C2CC2)c(-c2ncc3c(N4CC5CCC4CN5)nc(OC[C@@]45CCCN4C[C@H](F)C5)nc3c2F)c1 (some centres undefined)	≤ 0.05 µM	> 72		
[2H]C1([2H])CC[C@@]2(COc3nc(N4CC5CCC4CN5)c4cnc(-c5cc(O)cc(F)c5C5CC5)c(F)c4n3)C[C@@]([2H])(F)CN12 (some centres undefined)	> 0.05 µM			
C#Cc1c(F)ccc2cc(O)cc(-c3ncc4c(N5CC6CCC5CN6)nc(OC[C@@]56CCCN5C[C@H](F)C6)nc4c3F)c12 (some centres undefined)		12		
Oc1cc(Cl)c(C2CC2)c(-c2ncc3c(N4CC5CCC4CN5)nc(OC[C@]45CCCN4C[C@@H](F)C5)nc3c2F)c1 (some centres undefined)	> 0.05 µM			
[2H]C1([2H])CC[C@@]2(COc3nc(N4CC5CCC4CN5)c4cnc(-c5cc(O)cc6ccc(F)c(F)c56)c(F)c4n3)C[C@@]([2H])(F)CN12 (some centres undefined)	≤ 0.05 µM			
[2H]C1([2H])CC[C@]2(COc3nc(N4CC5CCC4CN5)c4cnc(-c5cc(O)cc(Cl)c5C5CC5)c(F)c4n3)C[C@]([2H])(F)CN12 (some centres undefined)	> 0.05 µM			
[2H]C1([2H])CC[C@@]2(COc3nc(N4CC5CCC4CN5)c4cnc(-c5cc(O)cc6ccc(F)c(C#C)c56)c(F)c4n3)C[C@@]([2H])(F)CN12 (some centres undefined)	≤ 0.05 µM		0.00507 µM	0.0596 µM
C#Cc1c(F)ccc2cc(O)cc(-c3ncc4c(N5CC6CCC5CN6)nc(OCC56CCCN5CCC6)nc4c3F)c12 (centres undefined)		12		
[2H][C@H]1CN2CCC[C@@]2(COc2nc(N3CC4CCC3CN4)c3cnc(-c4cc(O)cc5ccc(F)c(C#C)c45)c(F)c3n2)C1 (some centres undefined)	≤ 0.05 µM		0.00395 µM	0.0489 µM
[2H]C1([2H])CC[C@@]2(COc3nc(N4CC5CCC4CN5)c4cnc(-c5cc(O)cc(Cl)c5C5CC5)c(F)c4n3)C[C@@]([2H])(F)CN12 (some centres undefined)	≤ 0.05 µM		0.0139 µM	> 1 µM
Oc1cc(Cl)c(C(F)(F)F)c(-c2ncc3c(N4CC5CCC4CN5)nc(OCC45CCCN4CCC5)nc3c2F)c1 (centres undefined)	> 0.001 µM			
